Assays:
Faecalibacterium = Faecalibacterium proliferative effect in vivo: cell number in feces of infants by real-time PCR; set-up: species or system human (infants); conditions: for mean number of cells of Faecalibacterium (log10) / mean number of cells of Faecalibacterium per g feces: infants, oral, daily 1-3 g; for Significant difference (vs 0 week): Wilcoxon signed rank test; for cell number of Faecalibacterium over study period (in words): 12-week study
Excerpt: 58 infants from 6 months old to 6 years old were divided into 2 groups of 29 infants and they were designated 1-Kestose Group and Maltose Group. 1-Kestose Group took 1-kestose (purity 98% by mass or more, B Food Science Co., Ltd.) orally and Maltose Group took maltose (purity of 92% by mass or more, “Sunmalt-S” powder, Sanwa Starch Co., Ltd.) orally every day during the study period. The test period was 12 weeks. The daily intake of 1-kestose or maltose was 1 g (estimated intake; 0.121 g/kg body weight/day) for infants under 1 year old, 2 g (estimated intake; 0.169 g/kg body weight/day) for infants from 1 to 3 years old, and 3 g (estimated intake; 0.170 g/kg body weight/day) for infants from 4 to 6 years old. […] The estimated intake mentioned above was calculated based on the age-specific body weight data published in “2010 National growth survey on preschool children of the Ministry of Health, Labour and Welfare”. More specifically, the male and female medians were separately calculated from the minimums and the maximums of the body weight data within the age ranges of the study participants of Example 2 and the means of the medians were calculated. Subsequently, the male and female means of the means of the medians were calculated as estimated body weights. The estimated body weights were 8.26 kg for under 1 year old, 11.85 kg for 1 to 3 years old, and 17.62 kg for 4 to 6 years old. […] The numbers of cells of Faecalibacterium in the recovered feces were quantified by real-time PCR. Specifically, genomic DNA was first extracted from the feces using the reagent for genome extraction “Ultra Clean Soil DNA Isolation Kit” (Mo Bio Laboratories Inc.) and “High Pure PCR Template Preparation Kit” (Roche). […] The standard curve was generated based on the result of real-time PCR performed under the same conditions using genomic DNA extracted in the same way from Faecalibacterium prausnitzii strain ATCC27768 strain cultured in pure culture and counted under a microscope. The mean of cell numbers was calculated for each group.

[1] = tested on: Faecalibacterium prausnitzii strain ATCC27768; assay: Faecalibacterium proliferative effect in vitro: culture turbidity with oligosaccharide added; assay type: cell-based; conditions: for turbidity (OD value) at 660 nm: oligosaccharide 5.0 g/L, 37° C., anaerobic
Description: Liquid media of the following composition was prepared sterile. 1-Kestose (purity of 99% by mass, B Food Science Co., Ltd.), nystose (purity of 98% by mass, Wako Pure Chemical Industries, Ltd.), xylooligosaccharide (purity of 99% by mass, B Food Science Co., Ltd.), raffinose (purity of 98% by mass, Meiji Food Materia Co., Ltd.) and lactosucrose (purity of 89% by mass, Ensuiko Sugar Refining Co., Ltd.) were used as oligosaccharides. Moreover, a liquid medium of the following composition with no oligosaccharide was also prepared as a control.
[Composition of Liquid Medium/Per L] (Final pH: 7.0)
Casein digest 15.0 g, yeast extract 5.0 g, L-cystine 0.5 g, sodium chloride 2.5 g, thioglycolic acid 0.5 g, tryptophan 25 mg, hemin proper quantity, vitamin K1 proper quantity, oligosaccharide 5.0 g.
A prepared liquid medium was inoculated with Faecalibacterium prausnitzii strain ATCC27768 precultured until confluent to a turbidity with an OD (Optical Density) value at 660 nm of 0.05 to 0.06. The inoculated culture was cultured statically at 37° C. in anaerobic environment and the turbidity (OD value) at 660 nm was measured with a spectrophotometer 24 hours, 48 hours, and 72 hours later. Moreover, the relation between OD value and the duration of culture is illustrated in a line graph of FIG. 1. Moreover, OD values at a duration of time of 72 hours are illustrated in a bar graph of FIG. 2.

Row | Structure (SMILES) | mean number of cells of Faecalibacterium (log10) (Faecalibacterium; 0 week) [cells log10/g feces] | mean number of cells of Faecalibacterium per g feces (Faecalibacterium; 0 week) | change of cell number from 0 weeks (in words) (Faecalibacterium; 6 weeks) | Significant difference (vs 0 week) (Faecalibacterium; 6 weeks) | mean number of cells of Faecalibacterium (log10) (Faecalibacterium; 6 weeks) [cells log10/g feces] | mean number of cells of Faecalibacterium per g feces (Faecalibacterium; 6 weeks) | cell number of Faecalibacterium over study period (in words) (Faecalibacterium) | change of cell number from 0 weeks (in words) (Faecalibacterium; 12 weeks) | Significant difference (vs 0 week) (Faecalibacterium; 12 weeks) | mean number of cells of Faecalibacterium (log10) (Faecalibacterium; 12 weeks) [cells log10/g feces] | mean number of cells of Faecalibacterium per g feces (Faecalibacterium; 12 weeks) | increase of cell number from 0 weeks (Faecalibacterium; 6 weeks) [times] | increase of cell number from 0 weeks (Faecalibacterium; 12 weeks) [times] | OD values versus control and other oligosaccharides (in words) ([1]; 24 hours, 48 hours and 72 hours) | turbidity (OD value) at 660 nm ([1]; duration of culture 0 hour) | turbidity (OD value) at 660 nm ([1]; duration of culture 24 hours) | turbidity (OD value) at 660 nm ([1]; duration of culture 48 hours) | turbidity (OD value) at 660 nm ([1]; duration of culture 72 hours)
1 | OC[C@H]1O[C@H](O[C@H]2[C@H](O)[C@@H](O)C(O)O[C@@H]2CO)[C@H](O)[C@@H](O)[C@@H]1O (mixture of isomers) [Maltose, maltose] | 6.88 | 7.6 × 10^6 cells/g feces | slightly decreased | Not found | 6.77 | 5.8 × 10^6 cells/g feces | did not increase | slightly increased | Not found | 7.12 | 1.3 × 10^7 cells/g feces |  |  |  |  |  |  | 
2 | OC[C@H]1O[C@@](CO)(OC[C@@]2(O[C@H]3O[C@H](CO)[C@@H](O)[C@H](O)[C@H]3O)O[C@H](CO)[C@@H](O)[C@@H]2O)[C@@H](O)[C@@H]1O [1-kestose] | 6.57 | 3.7 × 10^6 cells/g feces |  | Not found | 7.16 | 1.4 × 10^7 cells/g feces | increased markedly |  | Found | 7.54 | 3.5 × 10^7 cells/g feces | ≥ 3.5 | ≥ 9 | markedly greater | 0.063 | 0.345 | 0.885 | 1.803
3 | OC[C@H]1O[C@@H](O[C@H]2[C@H](O)[C@@H](O)[C@@H](O[C@]3(CO)O[C@H](CO)[C@@H](O)[C@@H]3O)O[C@@H]2CO)[C@H](O)[C@@H](O)[C@H]1O [Lactosucrose, lactosucrose] |  |  |  |  |  |  |  |  |  |  |  |  |  |  | 0.055 | 0.298 | 0.448 | 0.295
4 | OC[C@H]1O[C@@](CO)(OC[C@@]2(OC[C@@]3(O[C@H]4O[C@H](CO)[C@@H](O)[C@H](O)[C@H]4O)O[C@H](CO)[C@@H](O)[C@@H]3O)O[C@H](CO)[C@@H](O)[C@@H]2O)[C@@H](O)[C@@H]1O [Nystose, nystose] |  |  |  |  |  |  |  |  |  |  |  |  |  |  | 0.063 | 0.290 | 0.443 | 0.305
5 | OC[C@H]1O[C@H](OC[C@H]2O[C@H](O[C@]3(CO)O[C@H](CO)[C@@H](O)[C@@H]3O)[C@H](O)[C@@H](O)[C@@H]2O)[C@H](O)[C@@H](O)[C@H]1O [Raffinose, raffinose] |  |  |  |  |  |  |  |  |  |  |  |  |  |  | 0.052 | 0.251 | 0.191 | 0.246

Reference: US20190070204A1, “PROLIFERATIVE AGENT FOR FAECALIBACTERIUM” (B FOOD SCIENCE CO., LTD., priority 2016, published 2019)
